# In patent US10736317B2, “Composition having sex pheromone activity on San Jose scale, and attractant, mating disruptant, attraction method and mating disruption method for San Jose scale” (SHIN-ETSU CHEMICAL CO., LTD., priority 2017, dated 2020):
# Test system: SJS male adult insects
# Assay: SJS attraction test (white adhesive trap, orchard)
# Assay type: in vivo, Quadraspidiotus perniciosus (San Jose scale)
# Details: conclusion from trap captures
# Source text: <Evaluation of Sex Pheromone Activity (SJS Attraction Test)> A white adhesive trap was used for evaluation of the sex pheromone activity. […] An adhesive material was applied over the bottom plate, and the attractant, which is shown as “A” in FIG. 1, was placed directly on the adhesive surface. In other words, it is configured to capture only insects that have approached the attractant, whereby keeping unintentional admission of insects as low as possible. In a period of from Jun. 30 to Oct. 2, 2015, the traps, each having one of the attractants, were placed in an orchard where SJS had inhabited. The number of male adult insects captured in each trap was measured for every 7 days. At every measurement, the installation places of the respective traps were changed by rotation of 13 places in total, in order to minimize the effects of installation environment on the number of capture.
structure (smiles),measurement,value
"C=C(C)CCCC(C)CCOC(=O)CC (stereo not shown) [3,7-dimethyl-7-octenyl propionate]",sex pheromone activity on the SJS,has a sex pheromone activity on the SJS
